Assay results published in patent US20090239877A1, “NOVEL 1,2,4-TRIAZOLE DERIVATIVES AND PROCESS OF MANUFACTURING THEREOF” (AETERNA ZENTARIS GmbH, priority 2008, published 2009).

How the values were obtained:
human GHS-R 1a [1] = target: T1, human GHS-R 1a (Homo sapiens, UniProt Q92847); test: GHS-R 1a receptor-ligand binding assay (membrane preparations from transfected LLC PK-1 cells); design: expressed in transfected cells; details: displacement of 125I-His9-ghrelin; plasma membranes of LLC PK-1 cells transiently transfected with human GHS-R 1a; mean of at least two independent experiments in triplicates
Summary of the method: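 Membranes (10 μg protein) from LLC PK-1 cells transiently transfected with human GHS-R 1a cDNA were incubated 60 min at 25° C in 50 mM Tris pH 7.3 buffer with […] ^125I-His^9-ghrelin, with nonspecific binding defined by 10^−6 M ghrelin. Filter-bound radioactivity was gamma-counted, and IC50 was obtained by non-linear regression of competition curves.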

human GHS-R 1a [2] = target: T1, human GHS-R 1a; test: In vitro intracellular calcium release assay using human GHS-R 1a transfected CHO cells; format: cell-based; design: expressed in transfected cells; host or cells: CHO-K1 Chinese hamster ovary cells (ATCC No. CCL-61), transient transfection by electroporation; details: intracellular calcium release, compound at 10^-6 M, relative to basal level (0%) and 1 μM ghrelin (100%)
Description: The ability to properly activate the receptors is assessed for any compound of the invention by comparing the degree of activation (increase of intracellular calcium) of GHS-R 1a by the compound to be tested (at 10^−6 M concentration) to the degree of activation (increase of intracellular calcium) of GHS-R 1a by 10^−6 M ghrelin (100%) and to the basal level (0%). Such assessment can be readily performed by the skilled artisan due to his expert knowledge. The output is a percentage value for each compound to be tested. […]
III) In Vitro Intracellular Calcium Release Assay Using Human GHS-R 1a Transfected CHO Cells
The potential of the compounds of the invention to modulate GHS receptor activity was assessed by an in vitro intracellular Calcium release assay employing CHO cells that were transfected with human GHS-R 1a.
Release of intracellular calcium or inhibition thereof was measured using the fluorescent calcium indicator assay (FLIPR) and Fluo-4 AM.
CHO cells (CHO-KI Chinese Hamster Ovary cell line, ATCC No. CCL-61) were transiently transfected with human GHS-R 1a cDNA by electroporation and plated into 96-well black bottom plates (Corning 3603) (80,000 cells/well). Transient transfections were performed using the Easyject Optima Electroporator (Equibio), according to the manufacturer's instructions.
Transfected cells were grown in Dulbecco's modified Eagle's medium without phenol red, supplemented with 10% (v/v) non-essential amino acids, […] glutamine and streptomycin-penicillin (250 μg/ml-250 u/ml) (all purchased from Cambrex) at 37° C., 5% CO2 in a humidified atmosphere for 24 hours.
After incubation, transfected cells were washed with 150 μl Buffer A [Hanks' balanced salt solution (Sigma H-6648), 0.5% (v/v) BSA (Sigma A-7906), 20 mM CaCl2, 2.5 mM probenecid (pH 7.4, dissolved in 1 M NaOH) (Sigma P-8761)] and were then loaded with fluorescent calcium indicator Fluo-4 AM (10^−6 M) (Interchim UP72972) prepared in Buffer A, additionally containing 0.06% pluronic acid (Molecular probes P-6867) (a […] detergent which facilitates Fluo-4AM ester loading). (Loading: 100 μl per well of Buffer A containing 120 μl/ml Pluronic Acid and 1 μM Fluo-4AM was added to the cells).
After loading with Fluo-4 AM, transfected cells were incubated for 1 hour in the dark at 37° C.
Compounds to be tested were dissolved in Buffer A in triplicates at a concentration of 10^−6 M and distributed into another 96-well plate (Fisher Labosi A1210500).
Following incubation, excess Fluo-4AM was removed, 100 μl of Buffer A was added to each well at room temperature and immediately removed by aspiration. This was then repeated, before adding 50 μl Buffer A to each well.
Transfected cells were further incubated room temperature for 30 min to allow complete de-esterification of intracellular Fluo-4AM esters.
Subsequently, both plates, the black-bottom plate containing transfected cells and the microtiter plate containing the compounds to be tested, were then placed into a temperature-regulated (25° C.) FlexStation machine (benchtop scanning fluorometer Flex Station II, Molecular Devices, Sunnyvale, Calif., USA) for fluorescence output measurements.
Basal fluorescence output from the transfected cells was measured for 15 sec and then 50 μl of the compounds to be tested were automatically distributed into the wells containing the transfected cells. The fluorescence output was then recorded for a further 45 sec.
Excitation and emission wavelengths were 485 nm and 525 nm, respectively. Basal fluorescence intensity of Fluo-4AM-loaded transfected cells without compounds to be tested varied between 800-1200 arbitrary units, whereas maximal fluorescence output of dye-loaded transfected cells upon incubation with the compounds to be tested varied between 5000-7000 arbitrary units and was equivalent to that achieved by stimulation of dye-loaded transfected cells with 10^−6 M ghrelin. […]

human GHS-R 1a [3] = target: T1, human GHS-R 1a; test: as above; format: cell-based; design: expressed in transfected cells; host or cells: CHO-K1 Chinese hamster ovary cells (ATCC No. CCL-61), transient transfection by electroporation; details: antagonist dissociation constant, antagonist inhibition curves in the presence of 10^-7 M ghrelin, Cheng-Prusoff equation, Fluo-4 AM

T1 sequence (Q92847 whole entry): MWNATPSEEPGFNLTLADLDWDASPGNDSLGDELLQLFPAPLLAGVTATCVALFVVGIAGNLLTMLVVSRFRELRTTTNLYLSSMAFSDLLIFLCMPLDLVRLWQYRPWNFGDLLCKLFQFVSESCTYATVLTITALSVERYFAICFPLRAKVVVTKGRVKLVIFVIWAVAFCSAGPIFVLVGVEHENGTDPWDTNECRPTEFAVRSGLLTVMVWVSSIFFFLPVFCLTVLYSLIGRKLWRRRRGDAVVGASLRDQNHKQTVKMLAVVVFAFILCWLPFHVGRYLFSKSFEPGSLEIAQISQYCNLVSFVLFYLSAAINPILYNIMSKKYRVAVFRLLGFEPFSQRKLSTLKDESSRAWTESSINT

## COc1ccc(Cn2c(CCc3ccccc3)nnc2[C@@H](Cc2c[nH]c3ccccc23)NC(=O)c2ccn[nH]2)c(OC)c1 [Compound 8, N-((R)-1-(4-(2,4-dimethoxybenzyl)-5-phenethyl-4H-1,2,4-triazol-3-yl)-2-(1H-indol-3-yl)ethyl)-1H-pyrazole-5-carboxamide]
Human GHS-R 1a [1]
  IC50: 350 nM
Human GHS-R 1a [2]
  activation at 1 µM: 0%
Human GHS-R 1a [3]
  Kb: 64 nM

## O=C(N[C@H](Cc1c[nH]c2ccccc12)c1nnc(CCCc2c[nH]c3ccccc23)n1Cc1ccccc1)c1ccccn1 [Compound 21, N-((R)-1-(5-(3-(1H-indol-3-yl)propyl)-4-benzyl-4H-1,2,4-triazol-3-yl)-2-(1H-indol-3-yl)ethyl)picolinamide]
Human GHS-R 1a [1]
  IC50: 80 nM
Human GHS-R 1a [2]
  activation at 1 µM: 0%
Human GHS-R 1a [3]
  Kb: 300 nM

## O=C(Cc1ccccn1)N[C@H](Cc1c[nH]c2ccccc12)c1nnc(Cc2ccccc2)n1Cc1ccc(Cl)c(Cl)c1 [Compound 34, N-((R)-1-(4-(3,4-dichlorobenzyl)-5-benzyl-4H-1,2,4-triazol-3-yl)-2-(1H-indol-3-yl)ethyl)-2-(pyridin-2-yl)acetamide]
Human GHS-R 1a [1]
  IC50: 110 nM
Human GHS-R 1a [2]
  activation at 1 µM: 0%
Human GHS-R 1a [3]
  Kb: 340 nM

## COc1ccc(Cn2c(CCc3c[nH]c4ccccc34)nnc2[C@@H](Cc2c[nH]c3ccccc23)NC(=O)c2ccn[nH]2)cc1 [Compound 14, N-((R)-1-(5-(2-(1H-indol-3-yl)ethyl)-4-(4-methoxybenzyl)-4H-1,2,4-triazol-3-yl)-2-(1H-indol-3-yl)ethyl)-1H-pyrazole-5-carboxamide]
Human GHS-R 1a [1]
  IC50: 89.8 nM
Human GHS-R 1a [2]
  activation at 1 µM: 15%
Human GHS-R 1a [3]
  Kb: 12.8 nM

## O=C(N[C@H](Cc1c[nH]c2ccccc12)c1nnc(CCCc2c[nH]c3ccccc23)n1Cc1ccccc1)C1CCOCC1 [Compound 23, N-((R)-1-(5-(3-(1H-indol-3-yl)propyl)-4-benzyl-4H-1,2,4-triazol-3-yl)-2-(1H-indol-3-yl)ethyl)-tetrahydro-2H-pyran-4-carboxamide]
Human GHS-R 1a [1]
  IC50: 370 nM
Human GHS-R 1a [2]
  activation at 1 µM: 15%
Human GHS-R 1a [3]
  Kb: 50 nM

## O=C(N[C@H](Cc1c[nH]c2ccccc12)c1nnc(CCc2ccccc2)n1Cc1cccc2ccccc12)C1CCOCC1 [Compound 19, N-((R)-2-(1H-indol-3-yl)-1-(4-((naphthalen-1-yl)methyl)-5-phenethyl-4H-1,2,4-triazol-3-yl)ethyl)-tetrahydro-2H-pyran-4-carboxamide]
Human GHS-R 1a [1]
  IC50: 390 nM
Human GHS-R 1a [2]
  activation at 1 µM: 0%
Human GHS-R 1a [3]
  Kb: 275 nM

## O=C(N[C@H](Cc1c[nH]c2ccccc12)c1nnc(Cc2ccccc2)n1Cc1ccc(Cl)c(Cl)c1)c1ccccn1 [Compound 36, N-((R)-1-(4-(3,4-dichlorobenzyl)-5-benzyl-4H-1,2,4-triazol-3-yl)-2-(1H-indol-3-yl)ethyl)picolinamide]
Human GHS-R 1a [1]
  IC50: 70 nM
Human GHS-R 1a [2]
  activation at 1 µM: 20%
Human GHS-R 1a [3]
  Kb: 215 nM

## COc1ccc(Cn2c(CCc3ccccc3)nnc2[C@@H](Cc2c[nH]c3ccccc23)NC(=O)C2CCOCC2)c(OC)c1 [Compound 12, N-((R)-1-(4-(2,4-dimethoxybenzyl)-5-phenethyl-4H-1,2,4-triazol-3-yl)-2-(1H-indol-3-yl)ethyl)-tetrahydro-2H-pyran-4-carboxamide]
Human GHS-R 1a [1]
  IC50: 15.8 nM
Human GHS-R 1a [2]
  activation at 1 µM: 3%
Human GHS-R 1a [3]
  Kb: 68 nM

## COc1ccc(Cn2c(CCc3cc4ccccc4[nH]3)nnc2[C@@H](Cc2c[nH]c3ccccc23)NC(=O)C2CCOCC2)c(OC)c1 [Compound 11, N-((R)-1-(5-(2-(1H-indol-2-yl)ethyl)-4-(2,4-dimethoxybenzyl)-4H-1,2,4-triazol-3-yl)-2-(1H-indol-3-yl)ethyl)-tetrahydro-2H-pyran-4-carboxamide]
Human GHS-R 1a [1]
  IC50: 12 nM
Human GHS-R 1a [2]
  activation at 1 µM: 0%
Human GHS-R 1a [3]
  Kb: 40 nM

## O=C(N[C@H](Cc1c[nH]c2ccccc12)c1nnc(Cc2ccccc2)n1Cc1ccc(Cl)c(Cl)c1)C1CCOCC1 [Compound 37, N-((R)-1-(4-(3,4-dichlorobenzyl)-5-benzyl-4H-1,2,4-triazol-3-yl)-2-(1H-indol-3-yl)ethyl)-tetrahydro-2H-pyran-4-carboxamide]
Human GHS-R 1a [1]
  IC50: 200 nM
Human GHS-R 1a [2]
  activation at 1 µM: 0%
Human GHS-R 1a [3]
  Kb: 215 nM
